The numbers were not newly measured in patent US11027027B2, “Pyridazinoindole compounds and methods for PET imaging” (Vanderbilt University, priority 2015, dated 2021), which cites them from elsewhere.

The target in the data set is central benzodiazepine receptor (CBR). Particulars: value used to calculate Ki; read-out: Kd for flunitrazepam; cited from earlier work.

What is called Kd is a measure of binding affinity in units of concentration. As to `CN1C(=O)CN=C(c2ccccc2F)c2cc([N+](=O)[O-])ccc21` [flunitrazepam], the Kd is 1.1 nM.
